Among the data in article PMC9007336, “Identification and molecular characterization of a novel non-specific lipid transfer protein (TdLTP2) from durum wheat” (PLoS ONE, 2022) are Kd values, retold here.

The structures appear in SMILES notation.

T1 sequence (A0A446PDN1 entry or part of it): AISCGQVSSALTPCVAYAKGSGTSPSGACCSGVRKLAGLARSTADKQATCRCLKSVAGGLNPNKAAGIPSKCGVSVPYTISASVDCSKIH

This assay addresses T1, rTdLTP2 (Triticum turgidum, UniProt A0A446PDN1).
T1 construct: gene LTP2; mature protein expressed from pPICZalphaA in Pichia pastoris, non-tagged, gel filtration and RP-HPLC
Kind of assay: hydrophobic ELISA plate coated with lipid, anti-LTP detection, one-site fit. It is filed as binding. An excerpt: hydrophobic ELISA plate coated with lipid, anti-LTP detection, one-site fit on rTdLTP2 | high kd values specifically for oleic, palmitic acids and for sterol (Fig 5B and 5C) | rTdLTP2 can bind a wide range of lipids as oleic, linoleic, stearic, and palmitic acids
As usually defined, the Kd is the free concentration of one partner at which half of the binding sites on the other are occupied at equilibrium, for simple one-to-one binding. Read a high Kd as weaker binding. With `CCCCC/C=C\C/C=C\CCCCCCCC(=O)O` [linoleic acid], the Kd turned out to be 590 nM.
With `CC[C@H](CC[C@@H](C)[C@H]1CC[C@H]2[C@@H]3CC=C4C[C@@H](O)CC[C@]4(C)[C@H]3CC[C@]12C)C(C)C` [B-sitosterol] the figure was 300 nM; with `CCCCCCCCCCCCCCCCCC(=O)O` [stearic acid], 470 nM.
For `CCCCCCCCCCCCCCCC(=O)O` [Palmitic acid], the affinity, expressed as Kd, was 310 nM.
Then `CCCCCCCC/C=C\CCCCCCCC(=O)O` [oleic acid], with 300 nM.
